Where “and” joins values, the source holds several entries; their conditions need not be identical. Identical values can stand only once.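 Compound exposure: 48 hours, 5 concentrations, 96-well plates. GI50 is the concentration that inhibits growth by half. TGI marks complete inhibition of growth.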 Residues, ends and D or L forms follow the SMILES beside them. *: point of attachment. Cbz = O=C(OCc1ccccc1)*
Experiments:
Assay in all cases: growth of human tumour cells (NCI), 48 h
[1] = test system: SW-620 colon
[2] = test system: ACHN renal
[3] = test system: SK-MEL-2 melanoma
[4] = test system: SK-MEL-28 melanoma
[5] = test system: HT29 colon
[6] = test system: MOLT-4 leukemia
[7] = test system: NCI-H226 lung
[8] = test system: DU-145 prostate
[9] = test system: HS 578T breast
[10] = test system: MDA-MB-435

| SMILES | TGI [1] | TGI [2] [µM] | TGI [3] [µM] | TGI [4] [µM] | TGI [5] [µM] | TGI [6] | TGI [7] | GI50 [1] | GI50 [8] | TGI [8] | GI50 [2] | GI50 [9] | TGI [9] | GI50 [10] [µM] | TGI [10] | GI50 [3] [µM] | GI50 [4] | GI50 [6] [µM] | GI50 [7] | GI50 [5] [µM] |
| --- | --- | --- | --- | --- | --- | --- | --- | --- | --- | --- | --- | --- | --- | --- | --- | --- | --- | --- | --- | --- |
| C=C1CC2(CCS(=O)(=O)c3ccccc32)OC1=O (stereo not given) | 11.4 µM | 23.7 | 23.6 | 27.8 | 31.7 | 15 µM | 28.9 µM |  |  |  |  |  |  |  |  |  |  |  |  |  |
| O=C1c2c(Cl)c(Cl)c(Cl)c(Cl)c2C(=O)C2(Cl)CC=CCC12Cl (stereo not given) | 3.08 µM | 3.37 | 4.89 | 3.28 |  | 6.36 µM | 4.88 µM | 1.49 µM | 1.93 µM | 3.36 µM | 1.89 µM | 2.04 µM | 5.88 µM | 2.06 | 4.32 µM | 2.48 | 1.8 µM | 2.39 | 1.97 µM |  |
| CN(/N=C\c1ccnc2ccccc12)c1ccccc1 | 51.4 µM | 95.8 | 38.5 | 82.7 | 35.9 | > 100 µM |  |  |  |  |  |  |  |  |  |  |  |  |  |  |
| COc1cc2c(c(OC)c1OC)-c1c(c3ccc([N+](=O)[O-])cc3c(=O)n1CCCN)C2=O | 2.35 µM | 16.6 | 2.77 |  |  | 14.2 µM | 19.4 µM | 1.03 µM | 7.27 µM | 16.6 µM | 8.06 µM | 11.1 µM | 31.4 µM | 0.865 | 1.63 µM | 1.21 |  | 5.82 | 9.38 µM |  |
| Cc1ccc(C(=O)NCCN(C)C)c2nc3ccccc3cc12 | 3.52 µM | 10.3 | > 100 | 5.46 | 11.3 | > 100 µM | 3.85 µM |  |  |  |  |  |  |  |  |  |  |  |  |  |
| CC(C)C[C@@H](C=O)NC(=O)[C@H](CC(C)C)NC(=O)[C@H](CC(C)C)NC(=O)OCc1ccccc1 (Cbz-Leu-Leu-Leu-aldehyde) | 2.07 µM | 1.98 | 3.28 | 11.6 | 0.647 | 11.9 µM |  | 0.355 µM | 0.53 µM | 10.6 µM | 0.357 µM | 0.437 µM | > 100 µM |  |  | 0.483 | 0.419 µM | 0.322 |  | 0.268 |
| O=C1C(=O)N(c2ccc(Cl)cc2)C(=O)C(=Nc2cccc3c(=O)[nH][nH]c(=O)c23)C1c1nc2ccccc2o1 (stereo not given) | > 100 µM | > 100 | > 100 | > 100 | > 100 | > 100 µM | > 100 µM |  |  |  |  |  |  |  |  |  |  |  |  |  |
| COC12OCCN(C)C1=CC(=O)C1(C)N=NCC12 (stereo not given) | > 100 µM | > 100 |  | > 100 | > 100 | > 100 µM | > 100 µM |  |  |  |  |  |  |  |  |  |  |  |  |  |
| Cc1ccc(Sc2ccccc2N)cc1 | > 100 µM | > 100 | > 100 | > 100 | > 100 | 58.4 µM | 66.4 µM |  |  |  |  |  |  |  |  |  |  |  |  |  |
| CCCCCCCCCCOC(=O)NCCC | > 100 µM | > 100 | 41 | > 100 | 49.7 | 43.6 µM |  |  |  |  |  |  |  |  |  |  |  |  |  |  |
| CC(=O)OCC1OC(n2ncc(=O)[nH]c2=O)C(OC(C)=O)C1OC(C)=O (stereo not given) | > 100 µM | > 100 |  | > 100 | > 100 | > 100 µM | > 100 µM |  |  | > 100 µM |  |  | > 100 µM |  | > 100 µM |  |  |  |  |  |
| COc1cc(/C=C/C(=O)c2c(-c3ccc(F)cc3)nc3sc(C)nn23)cc(OC)c1OC | 4.51 µM | 4.6 |  | 4.9 | 5.51 | 6.72 µM | 8.3 µM | 2.02 µM | 2.91 µM | 10.4 µM | 1.93 µM | 5.39 µM | > 100 µM | 3.35 | 13 µM |  | 2.19 µM | 2.3 | 2.46 µM | 2.55 |
| COc1cccc(C2SCc3nc4ccccc4n32)c1 (stereo not given) | > 100 µM | > 100 | > 100 | > 100 | > 100 | > 100 µM | > 100 µM |  |  |  |  |  |  |  |  |  |  |  |  |  |
| O=C(O)CN(c1ccc(F)cc1)S(=O)(=O)c1ccccc1 | > 100 µM | > 100 | > 100 | > 100 | > 100 | > 100 µM | > 100 µM |  |  |  |  |  |  |  |  |  |  |  |  |  |
| CN(C)CCNC(=O)c1ccc2oc3cc4ccccc4c(=O)n3c2c1 | > 100 µM | 37.6 | 63.5 | > 100 | > 100 | > 100 µM |  | 28.6 µM | 33.4 µM | > 100 µM | 15.1 µM |  |  | 42.1 | > 100 µM | 21.4 | 26.6 µM | 64.2 |  | 28 |
| Cc1ccc(S(=O)(=O)OCCOCCOCCOCCOCCOS(=O)(=O)c2ccc(C)cc2)cc1 | > 100 µM | > 100 | > 100 | > 100 | > 100 | 41.4 µM | > 100 µM |  |  |  |  |  |  |  |  |  |  |  |  |  |

| SMILES | TGI [1] | TGI [2] [µM] | TGI [3] [µM] | TGI [4] [µM] | TGI [5] [µM] | TGI [6] | TGI [7] | GI50 [1] | GI50 [8] | TGI [8] | GI50 [2] | GI50 [9] | TGI [9] | GI50 [10] [µM] | TGI [10] | GI50 [3] [µM] | GI50 [4] | GI50 [6] [µM] | GI50 [7] | GI50 [5] [µM] |
| --- | --- | --- | --- | --- | --- | --- | --- | --- | --- | --- | --- | --- | --- | --- | --- | --- | --- | --- | --- | --- |
| N#CCc1nnc(N)o1 | > 100 µM | > 100 | > 100 | > 100 |  | > 100 µM | > 100 µM |  |  |  |  |  |  |  |  |  |  |  |  |  |
| CC(C)=NNC(=S)NC12CC3CC(CC(C3)C1)C2 | > 100 µM | > 100 | > 100 | > 100 | > 100 | > 100 µM | > 100 µM |  |  |  |  |  |  |  |  |  |  |  |  |  |
| Cc1ccc(C2=Nc3ccccc3S(=O)C(c3ccc4c(c3)OCO4)C2)cc1 (stereo not given) | 34.5 µM | 82.4 | 41.6 | 89.9 | 31.5 | > 100 µM | > 100 µM |  |  |  |  |  |  |  |  |  |  |  |  |  |
| COc1ccc2nc3cccc([N+](=O)[O-])c3c(NC(C)CN(C)C)c2c1 (stereo not given) | 12.5 µM | 7.23 |  |  | 6.8 | 4.13 µM | 4.1 µM | 1.9 µM | 1.89 µM | 14.2 µM | 1.58 µM |  |  |  |  |  | 3.05 µM | 1.23 | 1.75 µM | 1.63 |
| COc1ccc(OC)c(/C=C/c2ccnc3ccccc23)c1 | 16.2 µM | 18.8 |  | 20.5 | 2.35 | 16.2 µM | 4.74 µM |  |  | 13.1 µM |  |  | 5.72 µM |  | 0.331 µM |  |  |  |  |  |
| Cc1c2c(nn1-c1ccc(S(=O)(=O)NC(=S)NC(=O)c3ccccc3)cc1)-c1ccccc1CC2 | > 100 µM | > 100 | > 100 | > 100 | > 100 | > 100 µM | > 100 µM | > 100 µM | 23.9 µM | > 100 µM | 41 µM |  |  | 27.9 | 91.4 µM | > 100 | 41.1 µM | > 100 | 60.2 µM | > 100 |
| O=C(O)c1c2c(cc3c(=O)cc(-c4ccccc4)oc13)CCCC2 | > 100 µM | > 100 | > 100 | > 100 | > 100 | > 100 µM |  |  |  |  |  |  |  |  |  |  |  |  |  |  |
| CN1CCN(CCCN2c3ccccc3Sc3ccc(Cl)cc32)CC1 | 12 µM and 62.5 µM | 12.4 | 59.5 |  |  | 11.5 µM |  | 5.72 µM and 41.8 µM | 6.53 µM and 50.9 µM | 13.5 µM and 94.6 µM | 5.93 µM |  | 13.5 µM and 83.2 µM |  | 6.02 µM and 58.6 µM | 40.9 |  | 3.8 |  |  |
| c1ccc2c(CNCCCCCCCCNCc3cccc4ccccc34)cccc2c1 | 3.29 µM | 8.36 | 3.03 | 3.32 | 3.35 | 9.64 µM | 24.5 µM |  |  |  |  |  |  |  |  |  |  |  |  |  |
| O=[N+]([O-])C=C1c2ccccc2-c2ccccc21 | 31.2 µM | 30.6 | 39.9 | 31.1 | 37.3 | 53.5 µM |  |  |  |  |  |  |  |  |  |  |  |  |  |  |
| OCC1CCCC1O (stereo not given) | > 100 µM | > 100 | > 100 | > 100 | > 100 | > 100 µM | > 100 µM |  |  | > 100 µM |  |  |  |  | > 100 µM |  |  |  |  |  |
| CCNCCNc1cc(-c2ccc(C(F)(F)F)cc2)c(C#N)c2nc3cc(Cl)c(Cl)cc3n12 | 1.14 µM | 3.1 |  | 2.89 | 3.08 |  |  | 0.306 µM | 1.7 µM | 3.13 µM | 1.61 µM | 1.81 µM | 3.91 µM | 1.65 | 3.16 µM |  | 1.4 µM |  |  | 1.64 |
| NC(=O)c1cc(Br)ccc1NC(=O)/C=C/c1ccccc1 | > 100 µM | > 100 |  | > 100 | > 100 | > 53.9 µM | > 100 µM | 0.986 µM | 2.3 µM | > 100 µM | 6.45 µM | 1.09 µM | 6.27 µM | 0.421 | 3.09 µM |  | 1.42 µM | 4.02 | 6.93 µM | 0.914 |
| CCOC(=O)CN(c1ccccc1)c1nc(=[N+](C)C)ss1 | > 100 µM | > 100 | 55.9 | > 100 |  | 28.2 µM | 75.4 µM |  |  |  |  |  |  |  |  |  |  |  |  |  |
| COc1cc(O)c2c(c1)C(=O)C1=C(C2=O)C(O)C[C@@](C)(O)C1 (stereo not given in full) | 2.53 µM | 4.46 | 5.05 | 3.15 | 2.39 | 7.63 µM | 13.2 µM |  |  |  |  |  |  |  |  |  |  |  |  |  |
| O=C1CC(CC(OCc2ccccc2)C(OCc2ccccc2)C(COCc2ccccc2)OCc2ccccc2)CC(=O)N1 (stereo not given) | > 100 µM and 23.9 µM | > 100 |  | > 100 | 18 | > 100 µM and 35.3 µM | > 100 µM and 62.4 µM | > 100 µM and 11.7 µM | > 100 µM and 27.1 µM | > 100 µM | > 100 µM and 18.2 µM | > 100 µM and 16.5 µM | > 100 µM and 33.9 µM |  | > 100 µM and 21.7 µM |  | > 100 µM and 21.4 µM |  | > 100 µM and 17.7 µM |  |

Source: PubChem BioAssay (NCI)
